Reference: patent US20230295260A1, “GLP RECEPTOR AGONISTS” (HEPTARES THERAPEUTICS LIMITED, priority 2020, published 2023)
Like-named read-outs stand apart in the source and are kept apart here. Starred links: 1 amine or outer side, 2 acyl side, 3 side chain; linkers in the order of their positions; H or OH if unused. Non-standard residues stand in square brackets, D forms with d. Residues, ends and D or L forms follow the SMILES beside them. Groups on a side chain read outwards from the residue. *: point of attachment. Malonyl(2,2-Me2,histaminyl) = CC(C)(C(=O)NCCc1cnc[nH]1)C(=O)*; Ala(1H-tetrazol-5-yl) = N[C@@H](Cc1nnn[nH]1)C(=O)O; C18 diacid = O=C(O)CCCCCCCCCCCCCCCCC(=O)*; γGlu = O=C(O)[C@H](CCC(=O)[*:2])N[*:1]; αMeF = C[C@](N)(Cc1ccccc1)C(=O)O; Nle = CCCC[C@H](N)C(=O)O; AEEA = NCCOCCOCC(=O)O; Aib = CC(C)(N)C(=O)O; Alloc = C=CCOC(=O)*

How the values were obtained:
human GLP1 receptor = biological target: T1, human GLP1 receptor (Homo sapiens, UniProt P43220); assay: cAMP accumulation assay (HTRF), functional agonism of human GLP1 receptor in HEK cells; format: cell-based; details: for EC50: read-out: Human GLP-1R agonist cAMP pEC50 (converted)
T1 construct: expressed in transfected cells; host or cells: HEK cells, BacMam virus transduction
Experimental: The functional activity of the peptides were assessed using a HTRF cAMP assay. pEC50 values are quoted.
cAMP production upon agonist stimulation of human GLP2 or GLP1 receptor was assessed utilizing HiRange cAMP kit (Cisbio). In brief, HEK cells were infected with either human GLP2 or GLP1 receptor BacMam virus for 24 hours and frozen for later use in the assay. […] Cells were prepared in the assay buffer (HBSS (Lonza) supplemented with 0.5 mM IBMX (Tocris)). After 45 min incubation at 37° C., the reaction was stopped by addition of the HTRF detection reagents in the lysis buffer provided in the kit.

human GLP2 receptor = biological target: T2, human GLP2 receptor (Homo sapiens, UniProt O95838); assay: cAMP accumulation assay (HTRF), functional agonism of human GLP2 receptor in HEK cells; details: for Emax: HEK293, read-out: Human GLP-2R agonist cAMP Emax;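 as to all read-outs here: HEK cells transduced via BacMam to express human GLP2 receptor, agonist-stimulated cAMP measured by HTRF after 45 min at 37 °C in HBSS with 0.5 mM IBMX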
T2 sequence (O95838 1-553): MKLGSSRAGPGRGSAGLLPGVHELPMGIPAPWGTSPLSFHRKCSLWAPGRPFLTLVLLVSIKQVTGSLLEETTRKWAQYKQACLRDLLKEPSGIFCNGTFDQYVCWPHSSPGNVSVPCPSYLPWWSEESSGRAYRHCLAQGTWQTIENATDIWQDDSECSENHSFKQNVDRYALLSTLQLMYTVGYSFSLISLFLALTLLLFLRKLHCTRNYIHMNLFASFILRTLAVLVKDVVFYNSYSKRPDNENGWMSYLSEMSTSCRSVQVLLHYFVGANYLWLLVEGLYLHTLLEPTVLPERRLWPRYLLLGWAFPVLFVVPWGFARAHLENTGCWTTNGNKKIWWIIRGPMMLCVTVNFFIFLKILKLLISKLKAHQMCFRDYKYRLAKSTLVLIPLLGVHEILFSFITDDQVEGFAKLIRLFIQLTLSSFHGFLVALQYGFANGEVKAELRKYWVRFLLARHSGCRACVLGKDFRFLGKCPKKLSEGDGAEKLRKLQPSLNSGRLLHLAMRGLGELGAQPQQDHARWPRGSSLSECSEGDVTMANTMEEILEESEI

[1] = HEK293, HEK cells, human GLP1 receptor BacMam, 45 min 37° C., read-out: Human GLP-1R agonist cAMP Emax
[2] = HEK cells, human GLP1 receptor BacMam, 45 min 37° C.

T1 sequence (P43220 24-463): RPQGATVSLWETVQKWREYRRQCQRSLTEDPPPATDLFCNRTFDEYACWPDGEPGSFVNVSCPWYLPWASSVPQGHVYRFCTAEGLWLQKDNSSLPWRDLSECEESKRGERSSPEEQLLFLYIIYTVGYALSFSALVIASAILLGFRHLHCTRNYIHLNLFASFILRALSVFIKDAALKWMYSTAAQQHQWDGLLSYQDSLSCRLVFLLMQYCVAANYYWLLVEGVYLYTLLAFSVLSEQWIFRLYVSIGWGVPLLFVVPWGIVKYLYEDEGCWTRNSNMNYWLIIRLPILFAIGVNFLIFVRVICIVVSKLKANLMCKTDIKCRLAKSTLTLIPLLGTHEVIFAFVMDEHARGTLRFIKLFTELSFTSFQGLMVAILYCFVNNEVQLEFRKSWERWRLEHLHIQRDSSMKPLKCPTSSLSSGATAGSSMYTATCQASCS

Molecule | Emax (human GLP1 receptor; [1]) [%] | EC50 (human GLP1 receptor; [2]) [nM] | EC50 (human GLP2 receptor) [nM] | Emax (human GLP2 receptor) [%] | Emax (human GLP1 receptor; HEK293, read-out: Human GLP-1R agonist cAMP Emax) [%] | Human GLP-1R agonist cAMP Emax (human GLP1 receptor) | Human GLP-2R agonist cAMP Emax (human GLP2 receptor; HEK cells, human GLP2 receptor BacMam, 45 min 37° C.)
C=CCOC(=O)NCCCC[C@H](NC(=O)[C@H](C)NC(=O)C(C)(C)NC(=O)[C@H](CCCCNC(=O)OCC=C)NC(=O)[C@H](CC(C)C)NC(=O)[C@H](CC(=O)O)NC(=O)[C@H](CC(C)C)NC(=O)C(C)(C)NC(=O)[C@@H](NC(=O)[C@@H](Cc1ccccc1)NC(=O)[C@H](CCCC)NC(=O)[C@H](CCC(=O)O)NC(=O)[C@H](CC(=O)O)NC(=O)[C@H](CO)NC(=O)[C@H](Cc1ccccc1)NC(=O)[C@H](CO)NC(=O)CNC(=O)[C@H](Cc1nn[nH]n1)NC(=O)C(C)(C)C(=O)NCCc1c[nH]cn1)[C@@H](C)O)C(=O)N[C@@H](CC(=O)O)C(=O)N[C@@H](Cc1ccccc1)C(=O)N[C@H](C(=O)N[C@@H](CC(N)=O)C(=O)N[C@@H](Cc1c[nH]c2ccccc12)C(=O)N[C@@H](CC(C)C)C(=O)N[C@H](C(=O)N[C@@H](CCC(N)=O)C(=O)N[C@H](C(=O)N[C@@H](CCCCN)C(=O)N[C@H](C(=O)N[C@H](C(=O)N[C@@H](CC(=O)O)C(N)=O)[C@@H](C)O)[C@@H](C)CC)[C@@H](C)O)[C@@H](C)CC)[C@@H](C)CC [Example 16] ({Malonyl(2,2-Me2,histaminyl)}-[Ala(1H-tetrazol-5-yl)]GSFSDE[Nle][dF]T[Aib]LDLK(Alloc)[Aib]AK(Alloc)DFINWLIQTKITD-NH2) | 96 | 15.8 | 0.01 | 102 | – | – | –
C=CCOC(=O)NCCCC[C@H](NC(=O)[C@H](C)NC(=O)C(C)(C)NC(=O)[C@H](CCCCNC(=O)OCC=C)NC(=O)[C@H](CC(N)=O)NC(=O)[C@H](CC(=O)O)NC(=O)[C@H](CC(C)C)NC(=O)C(C)(C)NC(=O)[C@@H](NC(=O)[C@H](CC(N)=O)NC(=O)[C@H](CCCC)NC(=O)[C@H](CCC(=O)O)NC(=O)[C@H](CC(=O)O)NC(=O)[C@H](CO)NC(=O)[C@H](Cc1ccccc1)NC(=O)[C@H](CO)NC(=O)[C@@H](C)NC(=O)[C@H](Cc1nn[nH]n1)NC(=O)C(C)(C)C(=O)NCCc1c[nH]cn1)[C@@H](C)O)C(=O)N[C@@H](CC(=O)O)C(=O)N[C@@H](Cc1ccccc1)C(=O)N[C@H](C(=O)N[C@@H](CC(N)=O)C(=O)N[C@@H](Cc1c[nH]c2ccccc12)C(=O)N[C@@H](CC(C)C)C(=O)N[C@H](C(=O)N[C@@H](CCC(N)=O)C(=O)N[C@H](C(=O)N[C@@H](CCCNC(=N)N)C(=O)N[C@H](C(=O)N[C@H](C(=O)N[C@@H](Cc1ccccc1)C(N)=O)[C@@H](C)O)[C@@H](C)CC)[C@@H](C)O)[C@@H](C)CC)[C@@H](C)CC [Example 8] ({Malonyl(2,2-Me2,histaminyl)}-[Ala(1H-tetrazol-5-yl)][dA]SFSDE[Nle]NT[Aib]LDNK(Alloc)[Aib]AK(Alloc)DFINWLIQTRITF-NH2) | – | – | – | 104 | 93.3 | – | –
C=CCOC(=O)NCCCC[C@H](NC(=O)[C@H](CC(C)C)NC(=O)[C@H](CC(=O)O)NC(=O)[C@H](CC(C)C)NC(=O)[C@@H](NC(=O)[C@@H](NC(=O)[C@@H](Cc1ccccc1)NC(=O)[C@H](CCCC)NC(=O)[C@H](CCC(=O)O)NC(=O)[C@H](CC(=O)O)NC(=O)[C@H](CO)NC(=O)[C@](C)(Cc1ccccc1)NC(=O)[C@H](CO)NC(=O)CNC(=O)[C@H](Cc1nn[nH]n1)NC(=O)C(C)(C)C(=O)NCCc1c[nH]cn1)[C@@H](C)O)[C@@H](C)CC)C(=O)N[C@@H](C)C(=O)N[C@@H](C)C(=O)N[C@@H](CCCCN)C(=O)N[C@@H](CC(=O)O)C(=O)N[C@@H](Cc1ccccc1)C(=O)N[C@H](C(=O)N[C@@H](CC(N)=O)C(=O)N[C@@H](Cc1c[nH]c2ccccc12)C(=O)N[C@@H](CC(C)C)C(=O)N[C@H](C(=O)N[C@@H](CCC(N)=O)C(=O)N[C@H](C(=O)N[C@@H](CCCCN)C(=O)N[C@H](C(=O)N[C@H](C(=O)N[C@@H](CC(=O)O)C(N)=O)[C@@H](C)O)[C@@H](C)CC)[C@@H](C)O)[C@@H](C)CC)[C@@H](C)CC [Example 10] ({Malonyl(2,2-Me2,histaminyl)}-[Ala(1H-tetrazol-5-yl)]GS[αMeF]SDE[Nle][dF]TILDLK(Alloc)AAKDFINWLIQTKITD-NH2) | 96.4 | 0.1 | 0.01 | 101 | – | – | –
Exendin-4 [reference compound] | – | – | – | – | – | 99.7 | 1.6

More lines, main results first:

Emax (human GLP1 receptor; [1]) [%] | EC50 (human GLP1 receptor; [2]) [nM] | EC50 (human GLP2 receptor) [nM] | Emax (human GLP2 receptor) [%] | Molecule | Emax (human GLP1 receptor; HEK293, read-out: Human GLP-1R agonist cAMP Emax) [%] | Human GLP-1R agonist cAMP Emax (human GLP1 receptor) | Human GLP-2R agonist cAMP Emax (human GLP2 receptor; HEK cells, human GLP2 receptor BacMam, 45 min 37° C.)
87.6 | 3.16 | 0.0158 | 101 | CCCC[C@H](NC(=O)[C@H](CCC(=O)O)NC(=O)[C@H](CC(=O)O)NC(=O)[C@H](CO)NC(=O)[C@H](Cc1ccccc1)NC(=O)[C@H](CO)NC(=O)CNC(=O)[C@H](Cc1nn[nH]n1)NC(=O)C(C)(C)C(=O)NCCc1c[nH]cn1)C(=O)N[C@H](Cc1ccccc1)C(=O)N[C@H](C(=O)N[C@H](C(=O)N[C@@H](CC(C)C)C(=O)N[C@@H](CC(=O)O)C(=O)N[C@@H](CC(C)C)C(=O)N[C@@H](CCCCNC(=O)CC[C@H](NC(=O)COCCOCCNC(=O)COCCOCCNC(=O)CCCCCCCCCCCCCCCCC(=O)O)C(=O)O)C(=O)N[C@@H](C)C(=O)N[C@@H](C)C(=O)N[C@@H](CCCCN)C(=O)N[C@@H](CC(=O)O)C(=O)N[C@@H](Cc1ccccc1)C(=O)N[C@H](C(=O)N[C@@H](CC(N)=O)C(=O)N[C@@H](Cc1c[nH]c2ccccc12)C(=O)N[C@@H](CC(C)C)C(=O)N[C@H](C(=O)N[C@@H](CCC(N)=O)C(=O)N[C@H](C(=O)N[C@@H](CCCCN)C(=O)N[C@H](C(=O)N[C@H](C(=O)N[C@@H](CC(=O)O)C(N)=O)[C@@H](C)O)[C@@H](C)CC)[C@@H](C)O)[C@@H](C)CC)[C@@H](C)CC)[C@@H](C)CC)[C@@H](C)O [Example 22] ({Malonyl(2,2-Me2,histaminyl)}-[Ala(1H-tetrazol-5-yl)]GSFSDE[Nle][dF]TILDLK([γGlu-AEEA-AEEA-C18 diacid])AAKDFINWLIQTKITD-NH2) | – | – | –
94 | 6.31 | 0.01 | 102 | C=CCOC(=O)NCCCC[C@H](NC(=O)[C@H](CC(C)C)NC(=O)[C@H](CC(=O)O)NC(=O)[C@H](CC(C)C)NC(=O)[C@@H](NC(=O)[C@@H](NC(=O)[C@@H](Cc1ccccc1)NC(=O)[C@H](CCCC)NC(=O)[C@H](CCC(=O)O)NC(=O)[C@H](CC(=O)O)NC(=O)[C@H](CO)NC(=O)[C@H](Cc1ccccc1)NC(=O)[C@H](CO)NC(=O)CNC(=O)[C@H](Cc1nn[nH]n1)NC(=O)C(C)(C)C(=O)NCCc1c[nH]cn1)[C@@H](C)O)[C@@H](C)CC)C(=O)NC(C)(C)C(=O)N[C@@H](C)C(=O)N[C@@H](CCCCN)C(=O)N[C@@H](CC(=O)O)C(=O)N[C@@H](Cc1ccccc1)C(=O)N[C@H](C(=O)N[C@@H](CC(N)=O)C(=O)N[C@@H](Cc1c[nH]c2ccccc12)C(=O)N[C@@H](CC(C)C)C(=O)N[C@H](C(=O)N[C@@H](CCC(N)=O)C(=O)N[C@H](C(=O)N[C@@H](CCCCN)C(=O)N[C@H](C(=O)N[C@H](C(=O)N[C@@H](CC(=O)O)C(N)=O)[C@@H](C)O)[C@@H](C)CC)[C@@H](C)O)[C@@H](C)CC)[C@@H](C)CC [Example 18] ({Malonyl(2,2-Me2,histaminyl)}-[Ala(1H-tetrazol-5-yl)]GSFSDE[Nle][dF]TILDLK(Alloc)[Aib]AKDFINWLIQTKITD-NH2) | – | – | –
